Assay results published in patent US11795144B2, “Inhibitors of RAC1 and uses thereof for treating cancers” (INSTITUT NATIONAL DE LA SANTE ET DE LA RECHERCHE MEDICALE …, priority 2017, dated 2023).
“Also recorded” adds a separate entry of the source.

Key:
[1] = biological target: RAC1 (Homo sapiens, UniProt P63000)
[2] = tested on: fibroblast; experiment: Cell adhesion assay using impedance technology (xCELLigence); type: cell-based; details: fibroblasts pre-treated with 10 μm
Source text: (§1) FIGS. 1 to 3 relate to the inhibition of the Rac-induced cell functions by compound (2) (or A4.1). […] Ruffles are indicated by arrows (left panel). Percentages of cells with ruffles were quantified (right panel). Results shown are representative of 3 independent experiments. […] Left panel, representative records with arrows indicating the cell location at different times. Right panel, quantification of cell speed in each experimental conditions. Results shown are representative of 2 independent experiments. […] Lower panel, quantification of cell adhesion. Results shown are representative of 3 independent experiments.
Cells (10000/well) were seeded in a 96 well plate microtiter xCELLigence assay plate (E-Plate) (ACEA Biosciences Inc.) and placed on the Real-time xCELLigence Cell Analyzer (Roche Applied Science) platform at 37° C. to measure the “cell index” every 5 min for a period of 6 hours. The cell index unit is defined as (Rn−Rb)/15. Rn is the cell electrode impedance of the well when it contains cells. Rb is the background impedance of the well with the media alone.

[3] = Chronic IP injections: body weight, glycemia, hepatic and renal functions; type: in vivo, mice; details: 25 mg/kg IP daily during 4 weeks
Procedure: FIGS. 6 to 8 relate to the effect of chronic IP injections of compound (2) on physiological parameters: body weight, glycemia, hepatic and renal functions.
(§2) To test whether compound (2) would have an acceptable therapeutic index in vivo, the pharmacokinetics of compound (2) were measured by analyzing plasma samples, brain, heart, kidney, liver and lungs from male C57BL6 adult mice after intraperitonal injection (IP) (FIG. 5). In addition, we evaluated the effect of chronic (daily during 4 weeks) IP injections of compound (2) on physiological parameters: body weight, glycemia, hepatic and renal functions (FIGS. 6 to 8).

[4] = tested on: primary fibroblasts from human breast cancer; experiment: Invasion in 3D gel of primary fibroblasts from breast cancer; type: cell-based; details: 10 μM, after 48 h
Procedure: (§3) FIG. 4 relates to the inhibition of the Rac-dependent cell functions involved in cancer cells by (2). FIG. 4A: Breast cancer cell line MDA-MB-468 and primary human fibroblast from breast cancer tumors were seeded in 3D-gel containing or not (2). […] FIG. 4B: Effect of (2) on foci assay.
(§4) To confirm this hypothesis, cancer cells invasion was analyzed in 3D gel. The breast cancer cell line MDA-MB-468 or primary fibroblasts from human breast cancer were seeded in gels containing or not (2) (10 μM).

[5] = tested on: MDA-MB-468; experiment: Cancer cell invasion in 3D gel; type: cell-based; details: 10 μM, after 48 h
Procedure: as §3, §4

[6] = biological target: T1, Rac^V12 (Homo sapiens, UniProt P63000, G12V); experiment: Ruffle formation and membrane location of constitutive active RFP-Rac^V12 in fibroblasts; type: cell-based
T1 construct: expressed in transfected cells; host or cells: NIH3T3
Procedure: (§5) cDNA coding for constitutive active Rac1 (Rac^V12-RFP) were transfected in NIH3T3 with jetPEI (Polyplus transfection) according to the manufacturer's instructions. After treatments, fibroblasts were fixed with 4% paraformaldehyde in PBS, permeabilized in PBS 0.5% Triton X-100, and incubated with 130 μg/mL of FITC-conjugated phalloidin (Sigma) to visualize F-actin. After staining, images were captured by a fluorescence microscope (Nikon). The actin cytoskeleton organization was analyzed to observe Rac1-dependent ruffle formation.
Rac1 over activity is implicated in various steps of oncogenesis including initiation, progression, invasion, and metastasis. The ability of (2) to inhibit a constitutive active mutant of Rac1, Rac^V12 was evaluated. In control condition, expression of RFP-Rac^V12 in fibroblasts induces changes in actin cytoskeleton leading to ruffles formation (data not shown). This effect is prevented by (2) (10 μM).

[7] = tested on: Rac; experiment: Rac activator-induced membrane ruffling (actin reorganization) in 3T3 fibroblasts; type: cell-based; details: 3T3 cells, compound added 1 h before Rac activation
Source text: as §1, §5

[8] = tested on: 3T3 cells; experiment: Unidirectional cell migration (cell speed); type: cell-based
Source text: Percentages of cells with ruffles were quantified (right panel). Results shown are representative of 3 independent experiments. […] Left panel, representative records with arrows indicating the cell location at different times. Right panel, quantification of cell speed in each experimental conditions. Results shown are representative of 2 independent experiments. […] Lower panel, quantification of cell adhesion. Results shown are representative of 3 independent experiments.
Cells (1000/well) were seeded in a 96 well plate with […] fibronectin stripes (CytooPlates Motility, CYTOO) in medium with 1% SVF and allowed to spread for 4 hours before capturing time-lapse images for 24 hours (image/10 minutes) on a Widefield Leica DMI 6000B drove with Metamorph software. Cells speed was measured with ImageJ software.

[9] = tested on: MCF-7 cells; experiment: Primary focus formation assay; type: cell-based; details: MCF-7, 3 weeks of treatment
Procedure: For primary focus formation assays, MCF-7 cells were plated at a density of 10^5 cells/well of a 6-well plate. Cells were allowed to reach confluency and were maintained on complete growth medium supplemented with indicated concentration of A4.1 (or compound (2)) or vehicle until focus formation occurred. Foci of transformed cells was quantitated after 21 days.
Malignant transformation of cells is typically associated with increased proliferation, loss of contact inhibition, acquisition of anchorage-independent growth potential, and the ability to form foci in culture cells. A focus formation assay was used to test whether (2) affects the clonogenic potential of breast cancer cells MCF-7. After 3 weeks of treatments, the cells's foci were fixed, stained and counted ([…]).

[10] = Pharmacokinetics after intraperitoneal injection; type: in vivo, male C57BL6 adult mice; details: male, C57BL6, mouse, plasma; IP route, mice
Procedure: FIG. 5 relates to the pharmacokinetics of compound (2) by analyzing kidney, brain, liver, heart, plasma samples, and lungs from male C57BL6 adult mice after intraperitonal injection. The curves of this Figure represent the concentration in μg/g over time in minutes.
as §2

[11] = tested on: MDA-MB-468 (Luciferase+) cell line; experiment: Metastasis in xenograft mouse tumor model; type: in vivo, NMRI mice; details: 25 mg/kg/d IP during 4 weeks after exeresis of primary tumor
Procedure: FIG. 9 relates to the in vivo efficiency of compound (2) to inhibit metastasis in a xenograft mouse tumor model using MDA-MB-468 (Luciferase+) cell line in 5-week-old NMRI mice.
The in vivo efficiency of compound (2) to inhibit metastasis was evaluated in a xenograft mouse tumor model using MDA-MB-468 (Luciferase+) cell line in 5-week-old NMRI mice. When the tumor volume reached 1,000 mm^3, exeresis of the primary tumor was done to monitor predominantly metastasis initiation and progression. Compound (2) was administered everyday via intraperitoneal injection (25 mg/kg/d) during 4 weeks. Then, xenografted mice were sacrified and organs were imaged (FIGS. 9A and 9B).

| SMILES | IC50 [1] [nM] | Relative activity (NSC23766) ([1]; compared with NSC23766) | Cell adhesion [2] | Side effects after chronic injection [3] | Decrease of cell invasion compared to control [4] [%] | Decrease of cell invasion compared to control [5] [%] | Location of Rac^V12 at the plasma membrane [6] | Ruffles formation induced by RFP-Rac^V12 ([6]; 10 μM) | Efficiency of Rac activator to induce ruffle / actin reorganization [7] | Efficiency of Rac activator to induce ruffle / actin reorganization ([7]; listed as A4.1) | Cell migration (cell speed) [8] | IC50 ([9]; Homo sapiens, MCF7, 504 h) [nM] | Focus diameter and focus numbers compared with control cells [9] | bioavailability [10] [%] | Metastases [11] |
| --- | --- | --- | --- | --- | --- | --- | --- | --- | --- | --- | --- | --- | --- | --- | --- |
| COc1ccc(OC)c(NS(=O)(=O)c2ccc(NC(=O)CCCc3ccc(C)cc3)cc2)c1 [(3), N-(4-(N-(2,5-dimethoxyphenyl)sulfamoyl)phenyl)-4-(p-tolyl) Butanamide] | 0.1 | > |  |  |  |  |  |  |  |  |  |  |  |  |  |
| CCN(CC)CCCC(C)Nc1nc(C)cc(Nc2ccc3nc(C)cc(N)c3c2)n1 (stereo not shown) [NSC23766, reference compound] |  |  | slow down |  |  |  |  |  |  |  |  |  |  |  |  |
| COc1ccc(OC)c(NS(=O)(=O)c2ccc(NC(=O)CCSc3ccc(C)cc3)cc2)c1 [Compound (2), N-(4-(N-(2,5-dimethoxyphenyl)sulfamoyl)phenyl)-3-(p-tolylthio)propanamide] |  |  | decreases cell adhesion; also recorded: higher inhibition | no major side effects | > 50 | > 50 | limits the location of Rac^V12 at the plasma membrane | prevented | strongly decreased | blocks Rac activator-induced actin reorganization | decreases cell migration; also recorded: higher inhibition | 2.3 | smaller focus diameter as well as focus numbers | 81.5 | decreases significantly bone, hepatic, uterine and ovarian metastases |
